Where two headings read alike, the source gives them in different places.
Assays:
[1] = log P by HPLC on reversed-phase column (C 18), EEC Directive 79/831 Annex V.A8; type: physicochemical; conditions: 55° C.; for LOGP_HCOOH: log P (HCOOH); for chromatographic logP: reversed-phase HPLC column (C 18)
Protocol: Temperature: 55° C. […] Called log P (HCOOH) in the table. […] Called log P (neutral) in the table.

Phaedon cochleariae = Phaedon cochleariae spray test; type: in vivo; conditions: after 7 days, Chinese cabbage leaf discs
Protocol: Phaedon cochleariae—Spray Test
Solvent: 78.0 parts by weight of acetone • • 1.5 parts by weight of dimethylformamide
Emulsifier: alkylaryl polyglycol ether
To produce a suitable active ingredient formulation, 1 part by weight of active ingredient is dissolved with the specified parts by weight of solvent and made up with water containing an emulsifier concentration of 1000 ppm until the desired concentration is attained. To produce further test concentrations, the formulation is diluted with emulsifier-containing water.
Discs of Chinese cabbage leaves (Brassica pekinensis) are sprayed with an active ingredient formulation of the desired concentration and, after drying, populated with larvae of the mustard beetle (Phaedon cochleariae).
After 7 days, the efficacy in % is determined. 100% means that all the beetle larvae have been killed; 0% means that no beetle larvae have been killed.

Spodoptera frugiperda = Spodoptera frugiperda spray test; type: in vivo; conditions: after 7 days, maize leaf discs
How it was run: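 Maize leaf discs were sprayed with compound formulated in acetone/DMF and emulsifier-containing water, dried, then infested with Spodoptera frugiperda caterpillars. Percent kill was scored after 7 days, from 100% (all dead) to 0% (none dead).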

[2] = acidic range pH 2.7, 0.1% aqueous formic acid and acetonitrile, reversed-phase column (C 18)
[3] = log P (neutral), HPLC reversed-phase column (C 18)
[4] = acidic range at pH 2.7, 0.1% aqueous formic acid and acetonitrile, HPLC on reversed-phase column (C 18)
[5] = log P, neutral range, HPLC on reversed-phase column (C 18)

| Structure (SMILES) | LOGP_HCOOH [1, 2] | LOGP_NEUTRAL [1, 3] | LOGP_HCOOH [1, 4] | LOGP_NEUTRAL [1, 5] | chromatographic logP ([1]; pH 2.7, LC-MS acidic range, pH 2.7, 0.1% formic acid/acetonitrile, read-out: log P (acidic) / log P (HCOOH)) | chromatographic logP ([1]; pH 7.8, LC-MS neutral range, pH 7.8, ammonium hydrogencarbonate/acetonitrile, read-out: log P (neutral)) | efficacy (beetle larvae killed) (Phaedon cochleariae; application rate 500 g/ha) [%] | efficacy (caterpillars killed) (Spodoptera frugiperda; application rate 500 g/ha) [%] | efficacy (beetle larvae killed) (Phaedon cochleariae; application rate 100 g/ha) [%] | efficacy (caterpillars killed) (Spodoptera frugiperda; application rate 100 g/ha) [%] | pest or weed control at 100 g/ha (Phaedon cochleariae; Phaedon cochleariae, foliar, 168 h, application rate 100 g/ha, read-out: efficacy (beetle larvae killed)) [%] | pest or weed control at 100 g/ha (Spodoptera frugiperda; Spodoptera frugiperda, foliar, 168 h, application rate 100 g/ha, read-out: efficacy (caterpillars killed)) [%] | pest or weed control at 500 g/ha (Spodoptera frugiperda; Spodoptera frugiperda, foliar, 168 h, application rate 500 g/ha, read-out: efficacy (caterpillars killed)) [%] |
| --- | --- | --- | --- | --- | --- | --- | --- | --- | --- | --- | --- | --- | --- |
| O=C(NC(=O)c1cc(-c2ccc(C(F)(F)C(F)(F)F)c(F)c2)cc(NC(=O)C2CC2)n1)c1ccc([N+](=O)[O-])cc1 [Example I-263] | 4.57 | 4.54 | – | – | – | – | 100 | 100 | – | – | – | – | – |
| CC(C)(CS(C)(=O)=O)NC(=O)c1cc(-c2ccc(C(F)(F)C(F)(F)F)c(F)c2)cc(NC(=O)C2CC2)n1 [Example I-253] | 3.96 | 3.91 | – | – | – | – | 100 | 100 | 100 | 100 | – | – | – |
| CC(C)C(=O)Nc1cc(-c2ccc(C(F)(F)F)cc2)cc(C(=O)NCc2cc(F)c(C#N)cc2F)n1 [Example I-071] | 4.23 | – | – | 4.08 | – | – | 83 | 100 | – | 100 | – | – | – |
| O=C(NCc1ccc(C(F)(F)F)c(F)c1)c1cc(-c2ccc(C(F)(F)F)cc2)cc(NC(=O)C2CC2)n1 [Example I-064] | 4.68 | – | – | 4.53 | – | – | 100 | 100 | – | 100 | – | – | – |
| N#Cc1ccc(CNC(=O)c2cc(-c3ccc(C(F)(F)C(F)(F)F)c(F)c3)cc(NC(=O)C3CC3)n2)c(F)c1 [Example I-251] | 4.45 | 4.38 | – | – | – | – | 100 | 100 | 83 | 100 | – | – | – |
| O=C(NCC1CC1)c1cc(-c2ccc(C(F)(F)F)cc2)cc(NC(=O)C2CC2)n1 [Example I-012] | 3.78 | – | – | 3.66 | – | – | 100 | 100 | 100 | – | – | – | – |
| COC1(NC(=O)c2cc(-c3ccc(C(F)(F)C(F)(F)F)c(F)c3)cc(NC(=O)C3CC3)n2)CC1 [Example I-244] | 4.08 | 4.08 | – | – | – | – | 100 | 100 | 100 | 100 | – | – | – |
| CC(C)C(=O)Nc1cc(-c2ccc(C(F)(F)F)cc2)cc(C(=O)NC(C)c2ccc(C#N)cc2)n1 (centres unmarked) [Example I-087] | 4.20 | – | – | 4.15 | – | – | 83 | 100 | – | 100 | – | – | – |
| CCCCNC(=O)c1cc(-c2ccc(C(F)(F)F)cc2)cc(NC(=O)C2CC2)n1 [Example I-037] | 4.05 | – | – | 3.98 | – | – | 83 | 100 | – | 83 | – | – | – |
| O=C(NCc1ccncc1)c1cc(-c2ccc(C(F)(F)C(F)(F)F)c(F)c2)cc(NC(=O)C2CC2)n1 [Example I-277] | 2.17 | 3.33 | – | – | – | – | 83 | 100 | – | 100 | – | – | – |
| CCNC(=O)c1cc(-c2ccc(C(F)(F)F)cc2)cc(NC(=O)C2CC2)n1 [Example I-016] | 3.30 | – | – | 3.23 | – | – | 83 | 100 | – | – | – | – | – |
| C[C@H](NC(=O)c1cc(-c2ccc(C(F)(F)F)cc2)cc(NC(=O)C2CC2)n1)c1ccc(C(F)(F)F)cc1 [Example I-060] | 4.89 | – | – | 4.82 | – | – | 100 | 100 | – | 83 | – | – | – |

Second part, led by results:

| LOGP_HCOOH [1, 2] | LOGP_NEUTRAL [1, 3] | LOGP_HCOOH [1, 4] | LOGP_NEUTRAL [1, 5] | chromatographic logP ([1]; pH 2.7, LC-MS acidic range, pH 2.7, 0.1% formic acid/acetonitrile, read-out: log P (acidic) / log P (HCOOH)) | chromatographic logP ([1]; pH 7.8, LC-MS neutral range, pH 7.8, ammonium hydrogencarbonate/acetonitrile, read-out: log P (neutral)) | Structure (SMILES) | efficacy (beetle larvae killed) (Phaedon cochleariae; application rate 500 g/ha) [%] | efficacy (caterpillars killed) (Spodoptera frugiperda; application rate 500 g/ha) [%] | efficacy (beetle larvae killed) (Phaedon cochleariae; application rate 100 g/ha) [%] | efficacy (caterpillars killed) (Spodoptera frugiperda; application rate 100 g/ha) [%] | pest or weed control at 100 g/ha (Phaedon cochleariae; Phaedon cochleariae, foliar, 168 h, application rate 100 g/ha, read-out: efficacy (beetle larvae killed)) [%] | pest or weed control at 100 g/ha (Spodoptera frugiperda; Spodoptera frugiperda, foliar, 168 h, application rate 100 g/ha, read-out: efficacy (caterpillars killed)) [%] | pest or weed control at 500 g/ha (Spodoptera frugiperda; Spodoptera frugiperda, foliar, 168 h, application rate 500 g/ha, read-out: efficacy (caterpillars killed)) [%] |
| --- | --- | --- | --- | --- | --- | --- | --- | --- | --- | --- | --- | --- | --- |
| – | – | 3.84 | – | – | – | CC(C)NC(=O)c1cc(-c2ccc(OC(F)(F)F)cc2)cc(NC(=O)C2CC2)n1 [Example I-129] | 100 | 100 | 100 | 100 | – | – | – |
| – | – | 3.81 | 3.71 | – | – | N#Cc1ccc(CNC(=O)c2cc(-c3cccc(OC(F)(F)F)c3)cc(NC(=O)C3CC3)n2)cc1 [Example I-208] | 100 | – | 100 | 100 | – | – | – |
| 4.40 | – | – | 4.33 | – | – | N#Cc1ccc(NC(=O)c2cc(-c3ccc(C(F)(F)F)cc3)cc(NC(=O)C3CC3)n2)cc1 [Example I-019] | 100 | 100 | – | – | – | – | – |
| 4.10 | 4.04 | – | – | – | – | O=C(NCc1ccc([N+](=O)[O-])s1)c1cc(-c2ccc(OC(F)(F)F)cc2)cc(NC(=O)C2CC2)n1 [Example I-240] | 100 | 100 | – | 83 | – | – | – |
| – | – | 3.78 | – | – | – | CCCNC(=O)c1cc(-c2ccc(OC(F)(F)F)cc2)cc(NC(=O)C2CC2)n1 [Example I-132] | 100 | 100 | – | 100 | – | – | – |
| 2.09 | 4.19 | – | – | – | – | N#Cc1ccc(NC(=N)c2cc(-c3ccc(OC(F)(F)F)cc3)cc(NC(=O)C3CC3)n2)cc1 [Example I-261] | 83 | 100 | – | 100 | – | – | – |
| – | – | – | 3.27 | – | – | CC(=O)Nc1cc(-c2ccc(OC(F)(F)F)cc2)cc(C(=O)NCc2ccc(C#N)cc2)n1 [Example I-204] | 100 | 100 | 100 | 100 | – | – | – |
| – | – | 3.11 | – | – | – | O=C(NC1CCOC1=O)c1cc(-c2ccc(OC(F)(F)F)cc2)cc(NC(=O)C2CC2)n1 (centres unmarked) [Example I-135] | 83 | 100 | – | – | – | – | – |
| 3.90 | 3.96 | – | – | – | – | N#Cc1ccc(CNC(=O)c2cc(-c3ccc(OC(F)(F)F)cc3)cc(NC(=O)CC(F)(F)F)n2)cc1 [Example I-241] | 100 | 100 | – | 100 | – | – | – |
| – | – | 3.53 | 3.35 | – | – | N#Cc1ccc(CNC(=O)c2cc(-c3ncc(C(F)(F)F)cc3Cl)cc(NC(=O)C3CC3)n2)cc1 [Example I-119] | 100 | 100 | 100 | 100 | – | – | – |
| – | – | 3.85 | 3.84 | 3.85 | 3.84 | CN(C(=O)C1CC1)c1cc(-c2ccc(OC(F)(F)F)cc2)cc(C(=O)NCc2ccc(C#N)cc2)n1 [Example I-215, N-(4-Cyanobenzyl)-6-[(cyclopropylcarbonyl)(methyl)amino]-4-[4-(trifluoromethoxy)phenyl]pyridine-2-carboxamide] | – | – | – | – | 100 | 100 | 83 |
| – | – | 3.33 | 3.23 | – | – | Cn1ncc2cc(CNC(=O)c3cc(-c4ccc(OC(F)(F)F)cc4)cc(NC(=O)C4CC4)n3)cnc21 [Example I-114] | 100 | 100 | – | 83 | – | – | – |
| – | – | 4.46 | 4.20 | – | – | O=C(Cc1ccc(Br)cc1)Nc1cc(-c2ccc(OC(F)(F)F)cc2)cc(C(=O)NC2CC2)n1 [Example I-125] | 100 | 100 | – | 100 | – | – | – |
| 4.45 | – | – | – | – | – | Cc1cc(-c2cc(NC(=O)C3CC3)nc(C(=O)NCc3ccc(C#N)cc3)c2)ccc1C(F)(F)C(F)(F)F [Example I-270] | 100 | 100 | – | – | – | – | – |
| – | – | 4.18 | 4.02 | – | – | N#Cc1c(F)cc(CNC(=O)c2cc(-c3ccc(OC(F)(F)F)cc3)cc(NC(=O)C3CC3)n2)cc1F [Example I-111] | 100 | 100 | 100 | 100 | – | – | – |

Reference: US20190053492A1, “SUBSTITUTED PYRIDINE COMPOUNDS AS PESTICIDES” (Bayer CropScience Aktiengesellschaft, priority 2016, published 2019)
